Measured values published in patent publication US9920074B2 (ACEA BIOSCIENCES INC., priority 2013, dated 2018).

Molecular target: T1, Jak3 phosphorylation in NK-92 cells (Homo sapiens, UniProt P52333)
T1 construct: endogenous in cells; host or cells: NK-92 cells (ATCC)
T1 sequence (P52333 1-1124): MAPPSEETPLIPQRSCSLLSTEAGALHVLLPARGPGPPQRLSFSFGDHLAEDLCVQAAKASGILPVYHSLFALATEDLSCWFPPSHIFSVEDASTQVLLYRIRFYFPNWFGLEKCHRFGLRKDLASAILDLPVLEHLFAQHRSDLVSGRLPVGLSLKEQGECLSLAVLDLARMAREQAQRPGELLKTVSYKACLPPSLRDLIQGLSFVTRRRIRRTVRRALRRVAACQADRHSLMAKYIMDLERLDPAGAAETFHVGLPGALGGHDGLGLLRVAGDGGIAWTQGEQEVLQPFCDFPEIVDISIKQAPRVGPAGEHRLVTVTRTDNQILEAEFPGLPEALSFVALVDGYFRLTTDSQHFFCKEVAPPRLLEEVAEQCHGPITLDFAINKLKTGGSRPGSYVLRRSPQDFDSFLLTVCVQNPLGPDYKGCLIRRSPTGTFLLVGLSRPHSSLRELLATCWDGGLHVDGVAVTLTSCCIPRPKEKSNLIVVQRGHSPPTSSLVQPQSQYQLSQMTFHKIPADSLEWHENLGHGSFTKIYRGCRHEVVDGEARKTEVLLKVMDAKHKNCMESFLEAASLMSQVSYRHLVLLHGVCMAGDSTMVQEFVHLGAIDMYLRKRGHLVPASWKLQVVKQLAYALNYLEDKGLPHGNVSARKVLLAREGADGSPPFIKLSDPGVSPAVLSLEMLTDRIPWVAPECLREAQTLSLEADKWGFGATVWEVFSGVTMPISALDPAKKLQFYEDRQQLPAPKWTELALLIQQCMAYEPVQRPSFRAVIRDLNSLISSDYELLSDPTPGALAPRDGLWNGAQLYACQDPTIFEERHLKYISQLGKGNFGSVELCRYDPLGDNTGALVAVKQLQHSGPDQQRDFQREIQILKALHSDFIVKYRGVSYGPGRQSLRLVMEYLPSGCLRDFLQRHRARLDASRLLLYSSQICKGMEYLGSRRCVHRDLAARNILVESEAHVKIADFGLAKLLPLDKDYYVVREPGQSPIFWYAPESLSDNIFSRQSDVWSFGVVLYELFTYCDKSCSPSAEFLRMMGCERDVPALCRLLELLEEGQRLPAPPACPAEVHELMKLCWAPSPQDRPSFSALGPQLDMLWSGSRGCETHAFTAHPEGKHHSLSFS
Test: Western blotting assay for Jak3
Assay type: cell-based
Settings: 1 hour, IL-2 stimulation, read-out: Jak3 inhibition
Method: All cell lines were obtained from the American Type Culture Collection and were maintained at 37° C. with 5% CO2. Ramos cell line was maintained in media supplemented with 10% fetal bovine serum, penicillin (100 units/mL) and streptomycin (100 μg/mL). NK-92 cell line was maintained in media supplemented with 10% fetal bovine serum and 10% horse serum, penicillin (100 units/mL) and streptomycin (100 μg/mL), IL-2 10 ng/mL. Goat F(ab′)2 Anti-Human IgM-UNLB was obtained from SouthernBiotech. IL-2 was obtained from Peprotech.
NK-92 cells were treated with compounds at the dosed indicated for 1 hour in incubator, followed by the IL-2 stimulation for 15 minutes. Cells were then collected and lysed to prepare the cellular extraction. Western blots were performed on cell lysate using Phospho-Jak3, Jak3, Phospho-Stat5, Stat5 antibodies (Cell Signaling Technology). The intensity of blotting band was acquired using Image Lab (Bio-Rad) software, and the IC50 of target was generated with GraphPad Prism.

Which IC50 does the source give for `C=CC(=O)Nc1cccc(Oc2nc(Nc3ccc(N4CCN(C)CC4)cc3)ncc2OC)c1` [Compound I-1, N-(3-(5-methoxy-2-(4-(4-methylpiperazin-1-yl)phenylamino)pyrimidin-4-yloxy)phenyl)acrylamide] here?
Its IC50 is at most 200 nM.
